Reference: patent US8324280B2, “Treatment of prostate cancer with DDC inhibitor” (The University of British Columbia, priority 2008, dated 2012)

Experiments:
[1] = tested on: AR; assay: AR transactivation assay (pARR3-tk-Luc) in AR transfected PC3 cells; type: cell-based, human
From the text: (§1) PC3 and LNCaP cells were transfected, treated with R1881 and used for luciferase assays, as described previously. Briefly, human AR expression plasmid (pcDNA3.1-hAR) and AR-regulated luciferase reporters, pARR3-tk-Luc or pPSA-630 bp-Luc (−630/+12 bp of the 5′ PSA flanking region) {Snoek, 1998 #136}, were cotransfected into cells, along with DDC expression plasmid (pDEST12.2-DDC) or control empty vector (pDEST12.2). Firefly luciferase values were normalized to renilla luciferase (PRL-TK reporter; Promega Corp.) and expressed as relative luciferase units (RLU).
Transactivation assays for AR were also performed in PC3 cells treated with dopamine (DA) and serotonin (5-HT, 5-hyroxytyrptamine), which were purchased from Sigma. As described above, cells were transfected with pcDNA3.1-hAR, pRL-TK-renilla and pARR3-tk-Luc reporter but DDC was excluded. Cells were then treated with or without 1 nM R1881 and varying concentrations of pure DA or 5-HT in 5% dextran-coated charcoal stripped FBS (DCC-FBS) for 24 hours before harvest and luciferase assay.

[2] = tested on: LNCaP cells; assay: cAMP assay in LNCaP cells; type: cell-based, human; conditions: all concentrations; DA 15 minutes, 5-HT 10 minutes
Experimental: (§2) PC3 and LNCaP cells were seeded in 12-well plates at a density of 1.5×10^5 cells/well. The next day, cells were gently washed three times with serum-free media to remove excess FBS and grown for a further 24 hours in the absence of serum. Cells were then stimulated with various concentrations of DA for 15 minutes or 5-HT for 10 minutes at 37° C. Cells were lysed and intracellular cAMP levels were determined using the cAMP Biotrak Enzymeimmunoassay System (Amersham Biosciences) following the manufacturer's instructions. Assays were performed in triplicate with two independent trials.

[3] = tested on: PC3 cells; assay: cAMP assay in PC3 cells; type: cell-based
Experimental: as §2

[4] = target: T1, AR ligand binding domain (Rattus norvegicus, UniProt P15207); assay: In vitro hydroxylapatite pulldown ligand binding assay
T1 construct: purchased PanVera
T1 sequence (P15207 651-882 limits assumed): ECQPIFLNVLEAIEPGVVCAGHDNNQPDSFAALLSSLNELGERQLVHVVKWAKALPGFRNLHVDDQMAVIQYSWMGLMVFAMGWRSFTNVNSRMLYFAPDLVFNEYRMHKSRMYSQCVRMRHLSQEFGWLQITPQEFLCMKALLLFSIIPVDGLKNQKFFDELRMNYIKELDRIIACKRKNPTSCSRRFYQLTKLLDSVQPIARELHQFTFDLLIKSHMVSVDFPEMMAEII
Experimental: Recombinant rat thioredoxin-fused AR ligand binding domain (PanVera, 1.390 mg/mL, 48.4 kDa), which is identical to the human AR-LBD, was used for hydroxylapatite (HAP) pulldown ligand binding assays at R1881 concentrations of 0 to 1000 nM {Portigal, 2002 #86}. Initially, his-tagged-DDC protein was expressed in BL21-SI bacteria, containing the pDEST17-His-DDC plasmid, and purified using a nickel-nitrilotriacetic acid (Ni-NTA)-agarose column according to the manufacturer's protocol (Qiagen). Purified AR-LBD was diluted to a final concentration of 1 μg/mL in binding buffer (50 mM Tris pH 7.5, 10% glycerol, 0.8 M NaCl, 1 mg/mL BSA and 2 mM dithiothreitol), containing tracer 20 nM [^3H]-R1881 (NEN Life Science Products, 75.2 Ci/mmol, 1 mCi/mL). In order to minimize the use of radioactive ligand, supplemental cold R1881 was added to the assay mix to achieve the high 100 nM and 1000 nM total R1881 concentrations. Assays were carried out in the absence and presence of 0.5 μg of His-DDC protein, which was added directly to the 1 mL assay mix. Following overnight incubation at 4° C., a 50% HAP slurry (Calbiochem Fast Flow hydroxylapatite in […] pH 8.0 and 1 mM EDTA) was added to the assay, pellets were incubated on ice for 10 minutes, and then washed four times with wash buffer (40 mM Tris pH 7.5, 100 mM KCl, 1 mM EDTA and 1 mM EGTA). HAP pellets were resuspended in ethanol and bound [^3H]-R1881 was measured (disintegrations per minute, dpm) using a Beckman LS 6500 scintillation counter.
To determine non-specific binding (NSB) to the HAP matrix, control pulldown assays were carried out using an assay mix that lacked AR-LBD. […] NSB values were subtracted from sample measurements for determination of specific binding. The total dpm per assay was determined by measuring a known amount of [^3H]-R1881 and normalizing to the total assay volume (1 mL). All assays were carried out in triplicate and the pmole bound [^3H]-R1881/mg AR-LBD protein was calculated by using the measured dpm of tracer 20 nM [^3H]-R1881. Calculated values were then extrapolated to determine total ligand bound at the 10 nM, 100 nM and 1000 nM R1881 concentrations. Results were expressed as the mean total pmole bound R1881/mg AR-LBD protein (±SEM).

[5] = tested on: AR; assay: AR transactivation assay (pARR3-tk-Luc) in LNCaP cells; type: cell-based, human; conditions: endogenous AR, 24 hours
From the text: as §1

[6] = tested on: AR; assay: Cell-based ligand binding assay in HeLa-AR cells (cytosol); design: species or system human
[7] = target: T2, DDC (Rattus norvegicus, UniProt P14173); assay: Dopamine ELISA on conditioned medium of PC12 cells; type: cell-based; conditions: 1 μM NSD-1015, 24 hours
T2 construct: PC12 cells were not transfected or treated with R1881 but were incubated 24 hours with or without NSD-1015; endogenous in cells; host or cells: PC12 rat adrenal pheochromocytoma cells
T2 sequence (P14173 1-480): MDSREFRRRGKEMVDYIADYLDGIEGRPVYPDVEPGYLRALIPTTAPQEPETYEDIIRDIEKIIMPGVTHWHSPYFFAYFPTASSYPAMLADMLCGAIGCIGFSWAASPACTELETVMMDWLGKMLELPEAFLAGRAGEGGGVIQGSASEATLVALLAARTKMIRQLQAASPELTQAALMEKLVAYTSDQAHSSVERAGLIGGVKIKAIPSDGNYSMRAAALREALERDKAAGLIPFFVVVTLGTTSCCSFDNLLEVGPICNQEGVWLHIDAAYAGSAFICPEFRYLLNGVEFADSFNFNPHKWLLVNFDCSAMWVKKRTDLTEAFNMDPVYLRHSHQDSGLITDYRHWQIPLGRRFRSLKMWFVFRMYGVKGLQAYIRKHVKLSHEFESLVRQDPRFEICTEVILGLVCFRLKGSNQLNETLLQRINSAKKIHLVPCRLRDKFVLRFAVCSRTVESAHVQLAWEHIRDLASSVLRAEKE
Experimental: (§3) PC3 cells were seeded in 12-well plates at a density of 1.5×10^5 cells/well and transfected the following day with pcDNA3.1-AR and pDEST12.2-DDC or pDEST12.2 empty vector control, as described above for transactivation assays. The next day, media was changed to 5% DCC-FBS containing 1 nM R1881. Conditioned culture media was removed 24 hours later and stored at −80° C. A 100 μL volume of media was used for the competitive enzyme-linked immunosorbent assay (ELISA). Dopamine was assayed using the Dopamine Research Enzyme Immunoassay kit (Rocky Mountain Diagnostics) following the manufacturer's instructions. PC12 cells, used as a positive control, were grown to 70% confluency (12-well plates) and conditioned media was collected 24 hours later for assay, as above. Secreted DA levels from PC3 and PC12 cells were determined in the presence and absence of 1 μM NSD-1015 (3-hydroxybenzylhydrazine) DDC enzymatic inhibitor (Sigma). All ELISAs were performed in triplicate with two independent trials.

[8] = target: T3, DDC (Homo sapiens, UniProt P20711); assay: Dopamine ELISA on conditioned medium of PC3 cells overexpressing DDC; type: cell-based; conditions: 1 μM NSD-1015, 24 hours, 1 nM R1881
T3 construct: expressed in transfected cells; host or cells: PC3 cells, co-transfected with pcDNA3.1-AR
T3 sequence (P20711 1-480): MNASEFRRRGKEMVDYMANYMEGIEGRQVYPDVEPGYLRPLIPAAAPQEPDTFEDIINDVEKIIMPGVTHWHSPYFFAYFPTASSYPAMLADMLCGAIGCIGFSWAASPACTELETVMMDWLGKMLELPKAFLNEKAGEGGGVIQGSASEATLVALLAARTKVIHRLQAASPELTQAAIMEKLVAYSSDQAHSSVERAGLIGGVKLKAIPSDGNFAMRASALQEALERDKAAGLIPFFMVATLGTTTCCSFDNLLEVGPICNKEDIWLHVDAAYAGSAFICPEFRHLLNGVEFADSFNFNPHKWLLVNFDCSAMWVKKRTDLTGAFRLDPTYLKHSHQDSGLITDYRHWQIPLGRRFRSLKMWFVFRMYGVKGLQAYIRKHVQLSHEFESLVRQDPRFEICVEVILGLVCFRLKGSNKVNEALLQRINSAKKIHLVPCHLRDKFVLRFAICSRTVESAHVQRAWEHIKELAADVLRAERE
Experimental: as §3

[9] = tested on: LNCaP cells; assay: MTS cell proliferation assay, androgen-dependent LNCaP cells; type: cell-based, human; conditions: 10 μM, 8 days
Experimental: Cell proliferation assays were performed using the 3-(4,5-dimethylhiazol-2-yl)-5-(3-carboxymethoxyphenyl)-2-(4-sulfophenyl)-2H-tetrazolium Assay (MTS) according to the manufacturer's protocol, with minor modifications (Promega). LNCaP cells were plated in 96-well plates at a density of 3000 cells per well and incubated in RPMI medium containing 5% CSS for one day. On the following day, the DDC inhibitors, carbidopa (25 and 50 μM) and NSD-1015 (10 μM)±0.1 nM R1881 were added to each well in charcoal-stripped serum (CSS; Hyclone, VWR) RPMI media. The cells were harvested at days 0, 2, 4, 6 and 8, with a medium change every 3 days. Each time point was measured with 6 replicates.
(§4) Student's t-test (two-sample equal variance) was used to evaluate statistically significant differences. All calculated p-values were two-sided and those less than 0.05 were considered statistically significant.

[10] = tested on: C4-2 cells; assay: MTS cell proliferation assay, androgen-independent C4-2 cells; type: cell-based, human; conditions: 10 μM, 6 days
Experimental: Cell proliferation assays were performed using the 3-(4,5-dimethylhiazol-2-yl)-5-(3-carboxymethoxyphenyl)-2-(4-sulfophenyl)-2H-tetrazolium Assay (MTS) according to the manufacturer's protocol, with minor modifications (Promega). C4-2 cells were plated in 96-well plates at a density of 750 cells per well in RPMI medium containing 5% CSS for 1 day. On the following day, the DDC inhibitors, carbidopa (25 μM) and NSD-1015 (10 μM)±0.1 nM R1881 were added to each well in charcoal-stripped serum (CSS; Hyclone, VWR) RPMI media. The cells were harvested at days 0, 2, 4, and 6, with a medium change every 3 days. Each time point was measured with 6 replicates.
as §4

[11] = presence of hormone (0.1 nM R1881)

NCCc1c[nH]c2ccc(O)cc12 [5-HT, 5-hyroxytyrptamine]
AR activity in the absence or presence of ligand ([1]; 0-100 nM, with or without 1 nM R1881, 24 hours): did not alter AR activity
intracellular cAMP response [2]: did not increase cAMP levels
intracellular cAMP response ([3]; 5-HT 10 minutes): did not increase cAMP levels

C[C@]1(O)CC[C@H]2[C@@H]3CCC4=CC(=O)CCC4=C3C=C[C@@]21C [R1881]
minimum concentration required for activation of AR transcription ([1]; PC3 cells transfected with AR, 24 hours): 0.1 nM
available ligand bound to AR-LBD (ligand-binding efficiency) ([4]; 20 nM [3H]-R1881, absence and presence of His-DDC): about 5%
ligand-binding efficiency ([4]; 100 nM R1881, absence of DDC): 14%
total available ligand bound to AR-LBD ([4]; 100 nM R1881, with His-DDC): 24.5%
ligand-binding efficiency ([4]; 1000 nM R1881, absence of DDC): 54%
total available ligand bound to AR-LBD ([4]; 1000 nM R1881, with His-DDC): 92%
R1881 concentration required to 50% saturate total AR-LBD protein ([4]; absence of His-DDC): 883 nM
R1881 concentration required to 50% saturate total AR-LBD protein ([4]; presence of His-DDC (0.5 μg/assay)): 425 nM
bound R1881 ([4]; tracer 20 nM [3H]-R1881, AR-LBD control): 895±93 pmole bound R1881/mg AR-LBD
bound R1881 ([4]; tracer 20 nM [3H]-R1881, AR-LBD+His-DDC): 937±111 pmole bound R1881/mg AR-LBD
minimum concentration required for activation of AR transcription [5]: 0.1 nM
amount of R1881 required to reach the control Bmax ([6]; presence of DDC (overexpression)): 0.56 nM
R1881 concentration at which control Bmax occurred ([6]; vector control): 1 nM

NCCc1ccc(O)c(O)c1 [DA, dopamine]
repression of ligand-dependent AR transcription ([1]; highest 200 μM concentration, 1 nM R1881, 24 hours): 2.2 fold
ligand-independent activation of AR ([1]; without R1881, 24 hours): not affected
intracellular cAMP response [2]: did not induce a significant cAMP response
increase in intracellular cAMP versus untreated cells ([3]; maximum 200 μM concentration, 15 minutes): ~52 fold

NNCc1cccc(O)c1 [NSD-1015, 3-hydroxybenzylhydrazine]
reduction of DA levels [7]: 2.6 fold
secreted DA level [7]: 3561±2032 pg/mL CM
secreted DA level [8]: 220±85 pg/mL CM
decrease in cell growth ([9]; absence of hormone): 1.43 fold
decline in cell growth [9, 11]: 1.15 fold
decrease in cell growth ([10]; absence of hormone): 1.20 fold
decline in cell growth [10, 11]: 1.24 fold
